Test results as given in ChEMBL document CHEMBL3407420, “In silico studies, synthesis and binding evaluation of substituted 2-pyrrolidinones as peptidomimetics of RGD tripeptide sequence” (Eur J Med Chem, 2015).

Columns and labels:
Integrin alpha-V/beta-5 = Integrin alpha-V/beta-5 (Homo sapiens, UniProt P06756+P18084); assay: Binding affinity to alphaVbeta5 receptor (unknown origin); format: protein-complex assay
Integrin alpha-V/beta-3 = Integrin alpha-V/beta-3 (Homo sapiens, UniProt P05106+P06756); assay: Displacement of [125I]echistatin from purified human alphaVbeta3 receptor after 3 hrs by gamma counting; format: protein-complex assay
Integrin alpha-V/beta-3, sequence (P05106 27-788 limits assumed): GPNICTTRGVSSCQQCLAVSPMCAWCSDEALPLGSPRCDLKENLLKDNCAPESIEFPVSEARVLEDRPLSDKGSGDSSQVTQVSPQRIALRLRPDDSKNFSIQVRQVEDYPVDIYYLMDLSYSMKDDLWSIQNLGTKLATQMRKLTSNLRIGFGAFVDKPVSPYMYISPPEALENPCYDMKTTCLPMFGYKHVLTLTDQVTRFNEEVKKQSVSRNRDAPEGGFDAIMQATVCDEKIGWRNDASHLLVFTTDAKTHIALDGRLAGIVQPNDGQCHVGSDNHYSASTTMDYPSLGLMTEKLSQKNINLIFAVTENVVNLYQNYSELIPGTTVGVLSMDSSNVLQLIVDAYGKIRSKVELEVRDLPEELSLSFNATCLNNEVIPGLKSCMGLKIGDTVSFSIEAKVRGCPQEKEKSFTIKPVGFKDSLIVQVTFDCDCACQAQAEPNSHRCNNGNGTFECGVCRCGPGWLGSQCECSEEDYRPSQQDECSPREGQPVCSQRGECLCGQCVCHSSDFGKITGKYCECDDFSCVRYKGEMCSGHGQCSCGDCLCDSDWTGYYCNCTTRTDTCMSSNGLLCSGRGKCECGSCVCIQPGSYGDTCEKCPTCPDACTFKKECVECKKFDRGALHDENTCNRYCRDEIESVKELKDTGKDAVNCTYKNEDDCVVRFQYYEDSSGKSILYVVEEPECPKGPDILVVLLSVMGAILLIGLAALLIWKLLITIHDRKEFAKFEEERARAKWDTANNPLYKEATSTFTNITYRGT
Integrin alpha-V/beta-3, sequence (P06756 31-889 limits assumed): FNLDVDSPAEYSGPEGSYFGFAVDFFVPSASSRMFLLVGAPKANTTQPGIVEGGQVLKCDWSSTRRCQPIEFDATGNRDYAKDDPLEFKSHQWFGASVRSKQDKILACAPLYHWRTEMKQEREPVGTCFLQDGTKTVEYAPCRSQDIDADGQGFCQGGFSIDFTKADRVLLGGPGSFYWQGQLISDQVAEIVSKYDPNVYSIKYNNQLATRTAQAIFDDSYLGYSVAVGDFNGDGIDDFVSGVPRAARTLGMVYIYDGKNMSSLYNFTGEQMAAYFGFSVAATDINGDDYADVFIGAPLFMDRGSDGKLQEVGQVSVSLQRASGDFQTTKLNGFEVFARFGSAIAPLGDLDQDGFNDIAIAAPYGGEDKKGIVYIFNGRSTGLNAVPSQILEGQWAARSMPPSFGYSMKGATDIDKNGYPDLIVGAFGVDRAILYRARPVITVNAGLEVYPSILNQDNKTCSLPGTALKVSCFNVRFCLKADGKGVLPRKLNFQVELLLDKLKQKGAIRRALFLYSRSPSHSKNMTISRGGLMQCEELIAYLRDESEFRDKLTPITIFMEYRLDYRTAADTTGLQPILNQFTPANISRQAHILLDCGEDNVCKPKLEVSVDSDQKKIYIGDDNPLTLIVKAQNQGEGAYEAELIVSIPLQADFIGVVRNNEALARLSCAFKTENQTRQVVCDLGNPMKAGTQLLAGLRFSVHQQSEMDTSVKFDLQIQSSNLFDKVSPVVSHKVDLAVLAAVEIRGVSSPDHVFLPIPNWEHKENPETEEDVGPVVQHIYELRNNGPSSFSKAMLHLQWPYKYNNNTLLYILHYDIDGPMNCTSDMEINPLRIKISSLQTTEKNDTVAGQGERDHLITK
Integrin alpha-V/beta-3, sequence (P06756 891-1048 limits assumed): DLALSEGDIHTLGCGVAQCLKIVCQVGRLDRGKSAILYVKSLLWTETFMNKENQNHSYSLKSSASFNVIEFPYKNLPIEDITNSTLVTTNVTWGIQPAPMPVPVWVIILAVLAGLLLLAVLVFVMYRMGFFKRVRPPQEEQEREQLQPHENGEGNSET

Integrin alpha-V/beta-5, sequence (P06756 31-889 limits assumed): as the sequence (P06756 31-889 limits assumed) above
Integrin alpha-V/beta-5, sequence (P06756 891-1048 limits assumed): as the sequence (P06756 891-1048 limits assumed) above
Integrin alpha-V/beta-5, sequence (P18084 24-799 limits assumed): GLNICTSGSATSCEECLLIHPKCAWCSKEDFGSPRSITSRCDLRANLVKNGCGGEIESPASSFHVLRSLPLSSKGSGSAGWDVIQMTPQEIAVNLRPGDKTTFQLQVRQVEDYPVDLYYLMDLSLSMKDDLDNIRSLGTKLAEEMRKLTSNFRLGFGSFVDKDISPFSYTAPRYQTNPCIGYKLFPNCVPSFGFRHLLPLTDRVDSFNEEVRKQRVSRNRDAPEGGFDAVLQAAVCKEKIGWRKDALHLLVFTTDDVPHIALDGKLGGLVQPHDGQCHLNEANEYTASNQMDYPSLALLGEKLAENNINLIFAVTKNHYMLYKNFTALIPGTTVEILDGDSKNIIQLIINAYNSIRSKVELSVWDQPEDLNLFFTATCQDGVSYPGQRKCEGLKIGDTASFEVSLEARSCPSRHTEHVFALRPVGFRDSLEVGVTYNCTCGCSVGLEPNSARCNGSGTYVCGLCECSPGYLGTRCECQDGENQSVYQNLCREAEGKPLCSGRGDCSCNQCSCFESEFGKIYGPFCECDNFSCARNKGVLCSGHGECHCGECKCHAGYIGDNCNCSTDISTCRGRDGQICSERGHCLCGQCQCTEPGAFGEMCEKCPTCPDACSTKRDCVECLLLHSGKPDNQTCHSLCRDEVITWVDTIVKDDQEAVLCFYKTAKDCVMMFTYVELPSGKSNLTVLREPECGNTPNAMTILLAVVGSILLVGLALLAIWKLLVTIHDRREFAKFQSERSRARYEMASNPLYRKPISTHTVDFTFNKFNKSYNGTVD

IC50 (Integrin alpha-V/beta-5) [µM] | IC50 (Integrin alpha-V/beta-3) [µM] | SMILES
30 |  | N=C(N)NCCC[C@@H]1NC(=O)[C@H](CCCCN)NC(=O)[C@@H](Cc2ccccc2)NC(=O)[C@H](CC(=O)O)NC(=O)CNC1=O
 | 50 | N=C(N)NCCC[C@@H]1CCN([C@@H](CCCCN)C(=O)NCCC(=O)O)C1=O
 | 100 | N=C(N)NCCC[C@@H]1CCN([C@@H](CCCCNC(=O)OCc2ccccc2)C(=O)NCCC(=O)O)C1=O
 | > 100 | N=C(N)NCCNC(=O)[C@H](CCCCNC(=O)OCc1ccccc1)N1CC[C@H](CCC(=O)O)C1=O
